Results on three molecules are retold here after patent US20250186496A1, “METHODS AND COMPOSITIONS FOR CONTROLLING T CELL ACTIVATION” (The General Hospital Corporation, priority 2022, published 2025).

Assay [1] concerns STAT5. The assay can be described thus: STAT5 signaling over increasing concentrations of lenalidomide. Type of assay: cell-based, human. As to conditions: increasing lenalidomide concentration; CAR19 cells with mbdIL7.
The subject of assay [2] is IL-7. As to the kind of experiment: Cytokine expression and soluble IL-7 in supernatant of CAR T cells cocultured with CD19+ Nalm6. Type of assay: cell-based. The source says:
FIGS. 13A-13C show mbdIL7 is cleaved from the T cell surface in a state-dependent manner.

Assay [3] deals with mbdIL7-Luc. As to conditions: mice. On the procedure:
The mdbIL7 was tagged with luciferase (mdbTL7-Luc), so mdbTL7 expression could be monitored in vivo. Mice were injected with Jurkat cells that were transduced with mdbIL7-Luc. The Jurkat mdbTL7-Luc cells were allowed to engraft for 25 days and then pomalidomide was administered to the mice (FIG. 14A).

The test system of assay [4] is T cells expressing a CD19 CAR. As to the kind of experiment: Expansion/activation of CAR T cells in production with or without exogenous IL-2 (population doublings). Type of assay: cell-based, human. As to conditions: CAR19 mbdIL7 without exogenous IL-2 vs CAR19 cells induced with IL-2. On the procedure: CAR19 T cells and mbdTL7 CAR19 T cells were cultured with and without exogenous IL-2. […] This was shown for two different types of cancer cells, Nalm6 and K562.

For the molecule `Nc1cccc2c1CN(C1CCC(=O)NC1=O)C2=O` (stereo not drawn) [lenalidomide], the pSTAT5 expression result in assay [1] is on record as “a decrease in pSTAT5 expression”. For the same molecule, the “effect of lenalidomide on IL-7 cleavage without antigen exposure” value in assay [2] (CAR19 mbdIL7 not experiencing antigen exposure) is reported as “no appreciable effects”. The “control of cleavage of IL-7 from the T cell surface by lenalidomide” value in assay [2] (CAR19 mbdIL7 with antigen exposure) was “effectively controlled by lenalidomide in a dose-dependent manner”.
`Nc1cccc2c1C(=O)N(C1CCC(=O)NC1=O)C2=O` (stereo not drawn) [pomalidomide]: the “decrease of mdbIL7-luc expression” value in assay [3] (6 hours after administration of pomalidomide) is recorded as “more than 10 fold”. Also, the mdbIL7-luc expression result in assay [3] (by 24 hours after pomalidomide administration) was “returned to levels similar to pre-administration”.

B1: mbdIL7: T cell factor: human IL-7, a CD80 hinge and transmembrane domain, and a lenalidomide-responsive zinc finger degron domain (protein)
chain: MLLLVTSLLLCELPHPAFLLIPEQKLISEEDLDCDIEGKDGKQYESVLMVSIDQLLDSMKEIGSNCLNNEFNFFKRHICDANKEGMFLFRAARKLRQFLKMNSTGDFDLHLLKVSEGTTILLNCTGQVKGRKPAALGEAQPTKSLEENKSLKEQKKLNDLCFLKRLLQEIKTCWNKILMGTKEHWNTTKQEHFPDNLLPSWAITLISVNGIFVICCLTYCFAPRCRERRRNERLRRESVRPVGSGSGSGSGGFNVLMVHKRSHTGERPLQCEICGFTCRQKGNLLRHIKLHTGEKPFKCHLCNYACQRRDAL
In the case of B1, the “CAR19 cell doubling time / expansion rate” value in assay [4] is on record as “not significantly affected”.
